# Tested on: Chinese Hamster Ovary (CHO-K1) cells
# Assay: In vitro micronucleus assay (genotoxicity)
# Assay type: cell-based
# Conditions: SiNc-NP 90 μg/mL, 24 hours; MMS 50 μg/mL positive control
# Method: Genotoxicity describes the property of chemical agents that damages the genetic information within a cell causing mutations, which may lead to cancer. An in vitro micronucleus assay was used to determine the genotoxicity of SiNc-NP on Chinese Hamster Ovary (CHO-K1) cells. Cells were treated with SiNc-NP (90 μg/mL) for the experiment group, fresh media for negative control, or methyl methanesulfonate (MMS, 50 μg/mL) for a positive control.
# A quantitative analysis was then performed to evaluate the genotoxicity. The analysis counted the number of micronuclei per 1000 cells.
smiles,measurement,value
"COS(C)(=O)=O [MMS, methyl methanesulfonate]","appearance of cell nuclei (fluorescence imaging, DAPI)",noticeable numbers of small buds/fragments appeared on or near cell nuclei
